Reference: ChEMBL document CHEMBL1201862, “PubChem BioAssay data set” (2004)
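Five concentrations, 48 hours, 96-well plates. The concentration for 50% growth inhibition is given as GI50.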 Active and inactive are the calls of the source. Cut-off read from the data, not from the text of the source: active = GI50 up to about 1.1 µM and inactive = higher.

Columns and labels:
Assay in all cases: NCI-60 cell line screen, 48 h
[1] = tested on: TK-10
[2] = tested on: KM12
[3] = tested on: OVCAR-3
[4] = tested on: SK-MEL-5
[5] = tested on: M14
[6] = tested on: RXF 393
[7] = tested on: NCI-H460
[8] = tested on: BT-549
[9] = tested on: COLO 205
[10] = tested on: DU-145
[11] = tested on: SK-OV-3
[12] = tested on: T47D
[13] = tested on: RPMI-8226
[14] = tested on: HCT-116
[15] = tested on: PC-3
[16] = tested on: K562
[17] = tested on: HOP-92
[18] = tested on: SF-295
[19] = tested on: CAKI-1
[20] = tested on: HT-29

| SMILES | GI50 [1] | GI50 [2] | GI50 [3] | GI50 [4] | GI50 [5] | GI50 [6] | GI50 [7] | GI50 [8] | GI50 [9] | GI50 [10] | GI50 [11] | GI50 [12] | GI50 [13] | GI50 [14] | GI50 [15] | GI50 [16] | GI50 [17] | GI50 [18] | GI50 [19] | GI50 [20] |
| --- | --- | --- | --- | --- | --- | --- | --- | --- | --- | --- | --- | --- | --- | --- | --- | --- | --- | --- | --- | --- |
| C=C(C)C1CC2=C(O1)C(=O)c1cccc(O)c1C2=O (configuration not stated) | 2.5 µM (inactive) | 1.69 µM (inactive) | 0.214 µM (active) | 0.144 µM (active) | 0.951 µM (active) | 1.04 µM (active) | 1.91 µM (inactive) | 0.406 µM (active) | 1.75 µM (inactive) | 1.76 µM (inactive) | 1.51 µM (inactive) | 1.23 µM (inactive) | 0.265 µM (active) | 10.9 µM (inactive) | 1.69 µM (inactive) | 0.0935 µM (active) | 0.604 µM (active) | 1.36 µM (inactive) | 0.764 µM (active) | 1.59 µM (inactive) |
| Cc1ccc(/N=N/c2c(O)ccc3ccccc23)c(C)c1 | > 100 µM (inactive) | > 100 µM (inactive) | > 100 µM (inactive) | > 100 µM (inactive) | > 100 µM (inactive) | > 100 µM (inactive) | – | > 100 µM (inactive) | > 100 µM (inactive) | > 100 µM (inactive) | > 100 µM (inactive) | > 100 µM (inactive) | > 100 µM (inactive) | > 100 µM (inactive) | > 100 µM (inactive) | > 100 µM (inactive) | > 100 µM (inactive) | > 100 µM (inactive) | > 100 µM (inactive) | > 100 µM (inactive) |
| CN(C)CCn1c(=O)nc2c3c(c([N+](=O)[O-])ccc31)Nc1ccc(O)cc1-2 | 4.66 µM (inactive) | 5.47 µM (inactive) | 2.01 µM (inactive) | 4.45 µM (inactive) | 13.4 µM (inactive) | 1.63 µM (inactive) | 0.977 µM (active) | 14.5 µM (inactive) | 2.72 µM (inactive) | 4.36 µM (inactive) | 15.3 µM (inactive) | 2.37 µM (inactive) | 4.16 µM (inactive) | 1.57 µM (inactive) | 4.25 µM (inactive) | 2.41 µM (inactive) | 2.69 µM (inactive) | 7.21 µM (inactive) | 5.53 µM (inactive) | 0.959 µM (active) |
| CN/N=C(\C)C(CN(C)C)C(c1ccccc1)c1c(O)c2ccccc2oc1=O (configuration not stated) | > 100 µM (inactive) | > 100 µM (inactive) | 49.5 µM (inactive) | > 100 µM (inactive) | > 100 µM (inactive) | 0.441 µM (active) | > 100 µM (inactive) | 24.3 µM (inactive) | 40.4 µM (inactive) | > 100 µM (inactive) | – | 18.7 µM (inactive) | 42 µM (inactive) | > 100 µM (inactive) | > 100 µM (inactive) | > 100 µM (inactive) | 0.0574 µM (active) | > 100 µM (inactive) | > 100 µM (inactive) | > 100 µM (inactive) |
| COc1ccc(CCNC(=O)[C@H]2CCCC[C@@H]2CCO)cc1OC | > 100 µM (inactive) | > 100 µM (inactive) | > 100 µM (inactive) | > 100 µM (inactive) | > 100 µM (inactive) | > 100 µM (inactive) | > 100 µM (inactive) | > 100 µM (inactive) | > 100 µM (inactive) | > 100 µM (inactive) | > 100 µM (inactive) | > 100 µM (inactive) | > 100 µM (inactive) | > 100 µM (inactive) | > 100 µM (inactive) | > 100 µM (inactive) | > 100 µM (inactive) | > 100 µM (inactive) | > 100 µM (inactive) | > 100 µM (inactive) |
| CN(C)C(=O)C1CCN(Cc2c[nH]c3ccccc23)CC1 | > 100 µM (inactive) | > 100 µM (inactive) | > 100 µM (inactive) | > 100 µM (inactive) | > 100 µM (inactive) | > 100 µM (inactive) | – | > 100 µM (inactive) | > 100 µM (inactive) | > 100 µM (inactive) | > 100 µM (inactive) | > 100 µM (inactive) | > 100 µM (inactive) | > 100 µM (inactive) | > 100 µM (inactive) | > 100 µM (inactive) | > 100 µM (inactive) | > 100 µM (inactive) | > 100 µM (inactive) | > 100 µM (inactive) |
